HELM strings list units from the 5' end as sugar, base in round brackets, then linkage (d deoxyribose, r ribose, m 2'-O-methyl, p phosphodiester). Strings are as the collection lists them, not checked against the first reports. ss, as = sense and antisense strand; [lna] = locked nucleic acid (LNA); [fl2r] = 2'-fluoro
Conditions: siRNA
“RNA1{r(C)p.r(U)p.r(U)p.r(A)p.r(C)p.r(G)p.r(C)p.r(U)p.r(G)p.r(A)p.r(G)p.r(U)p.r(A)p.r(C)p.r(U)p.r(U)p.r(C)p.r(G)p.r(A)p.[lna](T)p.[lna](T)}|RNA2{r(U)p.r(C)p.r(G)p.r(A)p.r(A)p.r(G)p.r(U)p.r(A)p.r(C)p.r(U)p.r(C)p.r(A)p.r(G)p.r(C)p.r(G)p.r(U)p.r(A)p.r(A)p.r(G)p.d(T)p.d(T)}$$$RNA1{StrandType:ss}|RNA2{StrandType:as}$” gave a target mRNA knockdown of 96%. With “RNA1{r(A)p.r(A)p.r(A)p.r(C)p.r(C)p.r(U)p.r(C)p.m(A)p.r(G)p.r(C)p.r(C)p.r(C)p.r(U)p.r(A)p.r(A)p.r(C)p.r(G)p.r(G)p.r(U)p.r(T)p.r(T)}|RNA2{r(A)p.r(C)p.r(C)p.r(G)p.r(U)p.m(U)p.r(A)p.r(G)p.r(G)p.r(G)p.r(C)p.r(U)p.r(G)p.r(A)p.r(G)p.r(G)p.r(U)p.r(U)p.r(U)p.r(T)p.r(T)}$$$RNA1{StrandType:ss}|RNA2{StrandType:as}$” the target mRNA knockdown was 70%. In the case of “RNA1{r(G)p.r(G)p.r(G)p.r(A)p.r(G)p.r(G)p.r(A)p.[fl2r](U)p.[fl2r](G)p.r(A)p.[fl2r](C)p.r(A)p.r(A)p.r(A)p.r(G)p.r(A)p.r(A)p.r(G)p.r(C)p.r(T)p.r(T)}|RNA2{r(G)p.r(C)p.r(U)p.r(U)p.r(C)p.r(U)p.r(U)p.[fl2r](U)p.r(G)p.r(U)p.[fl2r](C)p.r(A)p.r(U)p.r(C)p.r(C)p.r(U)p.r(C)p.r(C)p.r(C)p.r(T)p.r(T)}$$$RNA1{StrandType:ss}|RNA2{StrandType:as}$”, the target mRNA knockdown is reported as 78%. “RNA1{r(A)p.r(G)p.r(A)p.r(A)p.r(G)p.m(U)p.r(A)p.r(C)p.r(C)p.r(A)p.r(G)p.r(G)p.r(A)p.r(G)p.r(G)p.r(C)p.r(G)p.r(U)p.r(U)p.r(T)p.r(T)}|RNA2{r(A)p.r(A)p.r(C)p.r(G)p.r(C)p.r(C)p.r(U)p.r(C)p.r(C)p.r(U)p.r(G)p.r(G)p.m(U)p.r(A)p.r(C)p.r(U)p.r(U)p.r(C)p.r(U)p.r(T)p.r(T)}$$$RNA1{StrandType:ss}|RNA2{StrandType:as}$” gave a target mRNA knockdown of 69%. “RNA1{r(G)p.[fl2r](C)p.r(A)p.r(G)p.[fl2r](C)p.r(A)p.[fl2r](C)p.r(G)p.r(A)p.[fl2r](C)p.[fl2r](U)p.[fl2r](U)p.[fl2r](C)p.[fl2r](U)p.[fl2r](U)p.[fl2r](C)p.r(A)p.r(A)p.r(G)p.r(T)p.r(T)}|RNA2{[fl2r](C)p.[fl2r](U)p.[fl2r](U)p.r(G)p.r(A)p.r(A)p.r(G)p.r(A)p.r(A)p.r(G)p.[fl2r](U)p.[fl2r](C)p.r(G)p.[fl2r](U)p.r(G)p.[fl2r](C)p.[fl2r](U)p.r(G)p.[fl2r](C)p.r(T)p.r(T)}$$$RNA1{StrandType:ss}|RNA2{StrandType:as}$” showed a target mRNA knockdown of 83%. “RNA1{r(A)p.r(U)p.r(C)p.r(U)p.r(G)p.r(A)p.r(A)p.r(G)p.r(A)p.r(A)p.r(G)p.r(G)p.r(A)p.r(G)p.r(A)p.r(A)p.r(A)p.r(A)p.r(A)p.r(T)p.r(T)}|RNA2{[lna](T)p.r(U)p.r(U)p.r(U)p.r(U)p.r(C)p.r(U)p.r(C)p.r(C)p.r(U)p.r(U)p.r(C)p.r(U)p.r(U)p.r(C)p.r(A)p.r(G)p.r(A)p.r(U)p.[lna](T)p.[lna](T)}$$$RNA1{StrandType:ss}|RNA2{StrandType:as}$” gave a target mRNA knockdown of 22%. Work on “RNA1{m(G)p.r(A)p.m(A)p.r(G)p.m(A)p.r(G)p.m(U)p.r(U)p.m(A)p.r(A)p.m(C)p.r(C)p.m(C)p.r(G)p.m(G)p.r(G)p.m(A)p.r(C)p.r(U)p.r(T)p.r(T)}|RNA2{r(A)p.r(G)p.r(U)p.r(C)p.r(C)p.r(C)p.r(G)p.r(G)p.r(G)p.r(U)p.r(U)p.r(A)p.r(A)p.r(C)p.r(U)p.r(C)p.r(U)p.r(U)p.r(C)p.r(T)p.r(T)}$$$RNA1{StrandType:ss}|RNA2{StrandType:as}$” yielded a target mRNA knockdown of 17%. For “RNA1{r(G)p.r(G)p.r(C)p.r(C)p.r(U)p.r(U)p.r(U)p.r(C)p.r(U)p.r(C)p.r(U)p.r(C)p.r(U)p.r(A)p.r(G)p.r(A)p.r(U)p.r(A)p.r(U)p.r(T)p.r(T)}|RNA2{r(A)p.m(U)p.r(A)p.r(U)p.r(C)p.m(U)p.r(A)p.r(G)p.r(A)p.r(G)p.r(A)p.r(G)p.r(A)p.r(A)p.r(A)p.r(G)p.r(G)p.r(C)p.r(C)p.r(T)p.r(T)}$$$RNA1{StrandType:ss}|RNA2{StrandType:as}$”, the target mRNA knockdown was 90%. In the case of “RNA1{[fl2r](G)p.r(C)p.[fl2r](U)p.r(A)p.[fl2r](C)p.r(C)p.[fl2r](G)p.r(C)p.[fl2r](A)p.r(A)p.[fl2r](C)p.r(C)p.[fl2r](A)p.r(C)p.[fl2r](G)p.r(A)p.[fl2r](G)p.r(C)p.[fl2r](U)p.r(T)p.r(T)}|RNA2{r(A)p.r(G)p.r(C)p.r(U)p.r(C)p.r(G)p.r(U)p.r(G)p.r(G)p.r(U)p.r(U)p.r(G)p.r(C)p.r(G)p.r(G)p.r(U)p.r(A)p.r(G)p.r(C)p.r(T)p.r(T)}$$$RNA1{StrandType:ss}|RNA2{StrandType:as}$”, the target mRNA knockdown is reported as 21%. “RNA1{m(A)p.r(A)p.m(A)p.r(C)p.m(G)p.r(U)p.m(G)p.r(A)p.m(C)p.r(U)p.m(U)p.r(U)p.m(G)p.r(G)p.m(U)p.r(U)p.m(C)p.r(C)p.m(U)p.r(T)p.r(T)}|RNA2{r(A)p.m(G)p.m(G)p.r(A)p.r(A)p.r(C)p.r(C)p.r(A)p.r(A)p.r(A)p.m(G)p.r(U)p.r(C)p.r(A)p.r(C)p.m(G)p.r(U)p.r(U)p.r(U)p.r(T)p.r(T)}$$$RNA1{StrandType:ss}|RNA2{StrandType:as}$” gave a target mRNA knockdown of 37%. In the case of “RNA1{[fl2r](G)p.r(C)p.[fl2r](C)p.r(U)p.[fl2r](C)p.r(U)p.[fl2r](C)p.r(U)p.[fl2r](A)p.r(U)p.[fl2r](C)p.r(C)p.[fl2r](U)p.r(U)p.[fl2r](A)p.r(G)p.[fl2r](C)p.r(U)p.r(U)p.r(T)p.r(T)}|RNA2{r(A)p.r(A)p.r(G)p.r(C)p.r(U)p.r(A)p.[fl2r](A)p.r(G)p.r(G)p.r(A)p.r(U)p.[fl2r](A)p.r(G)p.r(A)p.r(G)p.r(A)p.r(G)p.r(G)p.r(C)p.r(T)p.r(T)}$$$RNA1{StrandType:ss}|RNA2{StrandType:as}$”, the target mRNA knockdown is reported as 34%. For “RNA1{r(C)p.r(G)p.r(U)p.r(A)p.r(C)p.r(G)p.r(C)p.r(G)p.r(G)p.r(A)p.r(A)p.r(U)p.r(A)p.r(C)p.r(U)p.r(U)p.r(C)p.r(G)p.r(A)p.r(T)p.r(T)}|RNA2{r(U)p.r(C)p.r(G)p.r(A)p.r(A)p.r(G)p.r(U)p.r(A)p.r(U)p.r(U)p.r(C)p.r(C)p.r(G)p.m(C)p.m(G)p.m(U)p.m(A)p.m(C)p.m(G)p.r(T)p.r(T)}$$$RNA1{StrandType:ss}|RNA2{StrandType:as}$”, the target mRNA knockdown was 30.8%. For “RNA1{r(U)p.r(C)p.r(C)p.r(G)p.r(G)p.r(C)p.[fl2r](U)p.r(A)p.r(A)p.r(C)p.r(U)p.r(C)p.r(U)p.r(G)p.r(A)p.r(G)p.r(G)p.r(A)p.r(C)p.r(T)p.r(T)}|RNA2{r(G)p.r(U)p.r(C)p.r(C)p.r(U)p.r(C)p.r(A)p.r(G)p.r(A)p.r(G)p.r(U)p.[fl2r](U)p.r(A)p.r(G)p.r(C)p.r(C)p.r(G)p.r(G)p.r(A)p.r(T)p.r(T)}$$$RNA1{StrandType:ss}|RNA2{StrandType:as}$”, the target mRNA knockdown was 82%. With “RNA1{r(G)p.r(C)p.r(C)p.r(U)p.r(C)p.r(U)p.r(C)p.r(U)p.r(A)p.r(U)p.r(C)p.r(C)p.r(U)p.r(U)p.r(A)p.r(G)p.r(C)p.r(U)p.r(U)p.r(T)p.r(T)}|RNA2{r(A)p.r(A)p.r(G)p.r(C)p.[fl2r](U)p.r(A)p.r(A)p.r(G)p.r(G)p.r(A)p.[fl2r](U)p.r(A)p.r(G)p.r(A)p.r(G)p.r(A)p.r(G)p.r(G)p.r(C)p.r(T)p.r(T)}$$$RNA1{StrandType:ss}|RNA2{StrandType:as}$” the target mRNA knockdown was 48%. “RNA1{r(G)p.r(A)p.r(G)p.[fl2r](U)p.r(A)p.r(U)p.r(U)p.r(U)p.r(C)p.r(C)p.r(G)p.r(C)p.[fl2r](U)p.r(G)p.r(G)p.r(A)p.r(A)p.r(C)p.r(U)p.r(T)p.r(T)}|RNA2{r(A)p.r(G)p.r(U)p.r(U)p.r(C)p.[fl2r](C)p.r(A)p.r(G)p.r(C)p.r(G)p.r(G)p.r(A)p.r(A)p.r(A)p.[fl2r](U)p.r(A)p.r(C)p.r(U)p.r(C)p.r(T)p.r(T)}$$$RNA1{StrandType:ss}|RNA2{StrandType:as}$” gave a target mRNA knockdown of 73%. In the case of “RNA1{r(G)p.r(G)p.r(A)p.r(A)p.r(G)p.m(U)p.r(A)p.r(A)p.r(G)p.r(G)p.r(A)p.r(C)p.m(C)p.r(A)p.r(G)p.r(A)p.r(G)p.r(A)p.r(C)p.r(T)p.r(T)}|RNA2{r(G)p.r(U)p.r(C)p.r(U)p.r(C)p.m(U)p.r(G)p.r(G)p.r(U)p.r(C)p.r(C)p.r(U)p.m(U)p.r(A)p.r(C)p.r(U)p.r(U)p.r(C)p.r(C)p.r(T)p.r(T)}$$$RNA1{StrandType:ss}|RNA2{StrandType:as}$”, the target mRNA knockdown is reported as 41%. Work on “RNA1{m(A)p.r(U)p.m(G)p.r(G)p.m(G)p.r(A)p.m(G)p.r(A)p.m(A)p.r(G)p.m(U)p.r(A)p.m(G)p.r(U)p.m(C)p.r(C)p.m(C)p.r(C)p.r(C)p.r(T)p.r(T)}|RNA2{r(G)p.r(G)p.r(G)p.r(G)p.r(G)p.r(A)p.r(C)p.r(U)p.r(A)p.r(C)p.r(U)p.r(U)p.r(C)p.r(U)p.r(C)p.r(C)p.r(C)p.r(A)p.r(U)p.r(T)p.r(T)}$$$RNA1{StrandType:ss}|RNA2{StrandType:as}$” yielded a target mRNA knockdown of 71%. For “RNA1{r(C)p.m(U)p.r(A)p.r(C)p.r(C)p.r(U)p.r(U)p.r(C)p.r(U)p.r(C)p.r(C)p.r(U)p.r(C)p.r(U)p.r(U)p.r(C)p.r(U)p.r(C)p.r(C)p.r(T)p.r(T)}|RNA2{r(G)p.r(G)p.r(A)p.r(G)p.r(A)p.r(A)p.r(G)p.r(A)p.r(G)p.r(G)p.r(A)p.r(G)p.r(A)p.r(A)p.r(G)p.r(G)p.m(U)p.r(A)p.r(G)p.r(T)p.r(T)}$$$RNA1{StrandType:ss}|RNA2{StrandType:as}$”, the target mRNA knockdown was 69%. “RNA1{r(U)p.m(U)p.r(G)p.r(G)p.r(G)p.r(G)p.r(A)p.r(A)p.r(G)p.r(C)p.r(G)p.r(G)p.r(C)p.r(C)p.r(G)p.r(G)p.r(C)p.r(G)p.r(G)p.r(T)p.r(T)}|RNA2{r(C)p.r(C)p.r(G)p.r(C)p.r(C)p.r(G)p.r(G)p.r(C)p.r(C)p.r(G)p.r(C)p.r(U)p.r(U)p.r(C)p.r(C)p.r(C)p.m(C)p.r(A)p.r(A)p.r(T)p.r(T)}$$$RNA1{StrandType:ss}|RNA2{StrandType:as}$” gave a target mRNA knockdown of 82%. In the case of “RNA1{r(G)p.r(U)p.r(U)p.r(C)p.r(A)p.r(C)p.r(G)p.r(U)p.r(C)p.r(C)p.r(U)p.r(A)p.r(C)p.r(C)p.r(C)p.r(C)p.r(U)p.r(U)p.r(U)p.r(T)p.r(T)}|RNA2{r(A)p.r(A)p.r(A)p.r(G)p.r(G)p.r(G)p.r(G)p.[fl2r](U)p.r(A)p.r(G)p.r(G)p.r(A)p.r(C)p.r(G)p.r(U)p.r(G)p.r(A)p.r(A)p.r(C)p.r(T)p.r(T)}$$$RNA1{StrandType:ss}|RNA2{StrandType:as}$”, the target mRNA knockdown is reported as 69%.

— the OligoGym collection
Also: test system not given here.
